The results in this text go back to ChEMBL document CHEMBL1131891, “Antiplatelet actions of aporphinoids from Formosan plants” (Bioorg Med Chem Lett, 1999).

Structures are written as SMILES.

The species named for one experiment is Oryctolagus cuniculus. The experiment in a line: Inhibitory activity against platelet aggregation induced by platelet activating factor(PAF) in washed rabbit platelet. The format is functional.
Settings: not given
As to `CC(=O)Oc1ccccc1C(=O)O` [ASPIRIN], the IC50 is above 1000 µM.

Still in this experiment, the particulars now being: read-out: IC50.
As for `COc1cc2c(cc1OC)C(O)C1c3c(c(OC)c(OC)c(OC)c3-2)CCN1C` (configuration not stated), the IC50 was 11.8 µM.
Regarding `COc1cc2c(cc1OC)C(O)C1c3c(cc(OC)c(OC)c3-2)CCN1C` (configuration not stated), the IC50 was 52.6 µM.

The species entered for another experiment is Oryctolagus cuniculus. The experiment in a line: Inhibitory activity against platelet aggregation induced by collagen in washed rabbit platelet. The class given is functional.
Settings: not given
`CC(=O)Oc1ccccc1C(=O)O` [ASPIRIN] registered an IC50 above 1000 µM.

The same experiment, now with this note: read-out: IC50.
Take `CN1CCc2cc3c(c4c2[C@H]1Cc1ccccc1-4)OCO3.Cl` [REMERINE HYDROCHLORIDE]: the 50% inhibitory concentration (IC50) turned out to be 88.2 µM.

For the next experiment, the species on record is Oryctolagus cuniculus. Kind of experiment: Effect on platelet aggregation induced by adenosine 5'-diphosphate (ADP) in washed rabbit platelet. The class given is functional.
Settings: not given
Compound `COc1cc2c(cc1OC)-c1c3c(cc4c1[C@H](C2)N(OC)CC4)OCO3` gave an Aggregation of 86.8%.
In turn, `COc1cc2c(cc1OC)C(O)C1c3c(c(OC)c(OC)c(OC)c3-2)CCN1C` (configuration not stated) came in with an Aggregation of 34.5%.
Compound `COc1cc2c(cc1OC)C(O)C1c3c(cc(OC)c(OC)c3-2)CCN1C` (configuration not stated) had an Aggregation of 78.3%.
On the same count and under the same terms, next, `COc1ccc2c(c1OC)-c1c(OC)c(O)cc3c1[C@H](C2)N(C)CC3`: 89.4%; `CC(=O)Oc1ccccc1C(=O)O` [ASPIRIN]: 77.9%; `COc1cc2c3c(c1O)-c1ccccc1CC3N(C)CC2` (configuration not stated): 86.3%.
Compound `CC1=NN(c2ccc([N+](=O)[O-])cc2)C(=O)C1[N+](=O)[O-].COc1cc2c(cc1O)C[C@@H]1NCCc3cc(O)c(OC)c-2c31` displayed an Aggregation of 92.1%.
Compound `COc1cc2c3c(c1OC)-c1ccccc1C[C@@H]3NCC2` displayed an Aggregation of 77.1%.
In turn, `CN1CCc2cc3c(c4c2[C@H]1Cc1ccccc1-4)OCO3.Cl` [REMERINE HYDROCHLORIDE] gave an Aggregation of 67.2%.
In turn, `Br.COc1c(O)ccc2c1-c1c3c(cc4c1[C@H](C2)NCC4)OCO3` had an Aggregation of 91.8%.
Same read-out and setting: next, `COc1ccc2c(c1OC)-c1c(OC)c(OC)cc3c1[C@H](C2)[N+](C)(C)CC3.[I-]` [ISOCORYDINE METHIODIDE]: 90.2%.
Regarding `COc1c(O)ccc2c1-c1c(OC)c(O)cc3c1[C@H](C2)NCC3.Cl`, the Aggregation stood at 10.5%.
Consider `COc1ccc2c(c1OC)-c1c3c(cc4c1[C@H](C2)[N+](C)(C)CC4)OCO3.[I-]`, for which the Aggregation is reported as 88.6%.
`COc1c(O)ccc2c1-c1c(OC)c(O)cc3c1[C@H](C2)[N+](C)(C)CC3.[I-]`: the Aggregation is recorded as 90.7%.
With `COc1cc2c(cc1O)C[C@H]1c3c(cc(OC)c(OC)c3-2)CC[N+]1(C)C.[I-]`, the Aggregation was determined as 87.6%.

For the next experiment, the species on record is Oryctolagus cuniculus. Kind of experiment: Effect on platelet aggregation induced by collagen in washed rabbit platelet. The format is functional.
Settings: not given
On to `COc1cc2c(cc1OC)-c1c3c(cc4c1[C@H](C2)N(OC)CC4)OCO3`, for which the Aggregation is 87.3%.
Turning to `COc1cc2c(cc1OC)C(O)C1c3c(c(OC)c(OC)c(OC)c3-2)CCN1C` (configuration not stated), the Aggregation amounted to 0%.
Compound `COc1cc2c(cc1OC)C(O)C1c3c(cc(OC)c(OC)c3-2)CCN1C` (configuration not stated) displayed an Aggregation of 12.7%.
`COc1ccc2c(c1OC)-c1c(OC)c(O)cc3c1[C@H](C2)N(C)CC3` showed an Aggregation of 83.5%.
The same measure, in the same setting: next, `CC(=O)Oc1ccccc1C(=O)O` [ASPIRIN]: 87.4%; `COc1cc2c3c(c1O)-c1ccccc1CC3N(C)CC2` (configuration not stated): 0%.
The compound `CC1=NN(c2ccc([N+](=O)[O-])cc2)C(=O)C1[N+](=O)[O-].COc1cc2c(cc1O)C[C@@H]1NCCc3cc(O)c(OC)c-2c31` returned an Aggregation of 4.6%.
Turning to `COc1cc2c3c(c1OC)-c1ccccc1C[C@@H]3NCC2`, the Aggregation is listed as 0%.
Regarding `CN1CCc2cc3c(c4c2[C@H]1Cc1ccccc1-4)OCO3.Cl` [REMERINE HYDROCHLORIDE], the Aggregation is 0%.
The compound `Br.COc1c(O)ccc2c1-c1c3c(cc4c1[C@H](C2)NCC4)OCO3` displayed an Aggregation of 0%.
On to `COc1ccc2c(c1OC)-c1c(OC)c(OC)cc3c1[C@H](C2)[N+](C)(C)CC3.[I-]` [ISOCORYDINE METHIODIDE], for which the Aggregation is given as 87.9%.
The compound `COc1c(O)ccc2c1-c1c(OC)c(O)cc3c1[C@H](C2)NCC3.Cl` registered an Aggregation of 0%.
The same measure, in the same setting: in the case of `COc1ccc2c(c1OC)-c1c3c(cc4c1[C@H](C2)[N+](C)(C)CC4)OCO3.[I-]` it was 77.6%; in that of `COc1c(O)ccc2c1-c1c(OC)c(O)cc3c1[C@H](C2)[N+](C)(C)CC3.[I-]`, 89.8%.
Consider `COc1cc2c(cc1O)C[C@H]1c3c(cc(OC)c(OC)c3-2)CC[N+]1(C)C.[I-]`, for which the Aggregation is listed as 81.3%.

The species named for the next experiment is Oryctolagus cuniculus. Kind of experiment: Inhibitory activity against platelet aggregation induced by arachidonic acid(AA) in washed rabbit platelet. The class given is functional.
Settings: not given
`CC(=O)Oc1ccccc1C(=O)O` [ASPIRIN] came in with an IC50 of 164 µM.

The same experiment, now with this note: read-out: IC50.
In the case of `COc1cc2c(cc1OC)C(O)C1c3c(c(OC)c(OC)c(OC)c3-2)CCN1C` (configuration not stated), the IC50 worked out at 70.4 µM.
Same read-out and setting: in the case of `COc1cc2c3c(c1O)-c1ccccc1CC3N(C)CC2` (configuration not stated) it was 171 µM; in that of `CC1=NN(c2ccc([N+](=O)[O-])cc2)C(=O)C1[N+](=O)[O-].COc1cc2c(cc1O)C[C@@H]1NCCc3cc(O)c(OC)c-2c31`, 149 µM; in that of `COc1cc2c3c(c1OC)-c1ccccc1C[C@@H]3NCC2`, 211 µM.
On to `CN1CCc2cc3c(c4c2[C@H]1Cc1ccccc1-4)OCO3.Cl` [REMERINE HYDROCHLORIDE], for which the IC50 was 195 µM.
As for `COc1c(O)ccc2c1-c1c(OC)c(O)cc3c1[C@H](C2)NCC3.Cl`, the IC50 is 168 µM.

Another experiment is filed under the species Oryctolagus cuniculus. The experiment in a line: Effect on platelet aggregation induced by arachidonic acid(AA) in washed rabbit platelet. The format is functional.
Settings: not given
Turning to `COc1cc2c(cc1OC)-c1c3c(cc4c1[C@H](C2)N(OC)CC4)OCO3`, the Aggregation came to 80.9%.
In the case of `COc1cc2c(cc1OC)C(O)C1c3c(c(OC)c(OC)c(OC)c3-2)CCN1C` (configuration not stated), the Aggregation worked out at 0%.
Still for that read-out and setting: in the case of `COc1cc2c(cc1OC)C(O)C1c3c(cc(OC)c(OC)c3-2)CCN1C` (configuration not stated) it was 21.8%; in that of `COc1ccc2c(c1OC)-c1c(OC)c(O)cc3c1[C@H](C2)N(C)CC3`, 86.5%.
In turn, `CC(=O)Oc1ccccc1C(=O)O` [ASPIRIN] came in with an Aggregation of 0%.
In the case of `COc1cc2c3c(c1O)-c1ccccc1CC3N(C)CC2` (configuration not stated), the Aggregation is on record as 0%.
On to `CC1=NN(c2ccc([N+](=O)[O-])cc2)C(=O)C1[N+](=O)[O-].COc1cc2c(cc1O)C[C@@H]1NCCc3cc(O)c(OC)c-2c31`, for which the Aggregation is reported as 0%.
The compound `COc1cc2c3c(c1OC)-c1ccccc1C[C@@H]3NCC2` had an Aggregation of 0%.
The compound `CN1CCc2cc3c(c4c2[C@H]1Cc1ccccc1-4)OCO3.Cl` [REMERINE HYDROCHLORIDE] came in with an Aggregation of 0%.
As for `Br.COc1c(O)ccc2c1-c1c3c(cc4c1[C@H](C2)NCC4)OCO3`, the Aggregation is on record as 60%.
In turn, `COc1ccc2c(c1OC)-c1c(OC)c(OC)cc3c1[C@H](C2)[N+](C)(C)CC3.[I-]` [ISOCORYDINE METHIODIDE] displayed an Aggregation of 71%.
In the case of `COc1c(O)ccc2c1-c1c(OC)c(O)cc3c1[C@H](C2)NCC3.Cl`, the Aggregation amounted to 0%.
Compound `COc1ccc2c(c1OC)-c1c3c(cc4c1[C@H](C2)[N+](C)(C)CC4)OCO3.[I-]` registered an Aggregation of 89%.
Consider `COc1c(O)ccc2c1-c1c(OC)c(O)cc3c1[C@H](C2)[N+](C)(C)CC3.[I-]`, for which the Aggregation is listed as 83.7%.
`COc1cc2c(cc1O)C[C@H]1c3c(cc(OC)c(OC)c3-2)CC[N+]1(C)C.[I-]`: the Aggregation was determined as 88.1%.

For a further experiment, the species on record is Oryctolagus cuniculus. The experiment in a line: Effect on platelet aggregation induced by platelet activating factor(PAF) in washed rabbit platelet. The class given is functional.
Settings: not given
On to `COc1cc2c(cc1OC)-c1c3c(cc4c1[C@H](C2)N(OC)CC4)OCO3`, for which the Aggregation was 92.2%.
With `COc1cc2c(cc1OC)C(O)C1c3c(c(OC)c(OC)c(OC)c3-2)CCN1C` (configuration not stated), the Aggregation came out at 0%.
Compound `COc1cc2c(cc1OC)C(O)C1c3c(cc(OC)c(OC)c3-2)CCN1C` (configuration not stated) gave an Aggregation of 0%.
With `COc1ccc2c(c1OC)-c1c(OC)c(O)cc3c1[C@H](C2)N(C)CC3`, the Aggregation worked out at 78.6%.
As to `CC(=O)Oc1ccccc1C(=O)O` [ASPIRIN], the Aggregation turned out to be 90.4%.
`COc1cc2c3c(c1O)-c1ccccc1CC3N(C)CC2` (configuration not stated): the Aggregation amounted to 51.7%.
On to `CC1=NN(c2ccc([N+](=O)[O-])cc2)C(=O)C1[N+](=O)[O-].COc1cc2c(cc1O)C[C@@H]1NCCc3cc(O)c(OC)c-2c31`, for which the Aggregation is 79.3%.
The compound `COc1cc2c3c(c1OC)-c1ccccc1C[C@@H]3NCC2` came in with an Aggregation of 30.6%.
Still for that read-out and setting: in the case of `CN1CCc2cc3c(c4c2[C@H]1Cc1ccccc1-4)OCO3.Cl` [REMERINE HYDROCHLORIDE] it was 27.8%.
In the case of `Br.COc1c(O)ccc2c1-c1c3c(cc4c1[C@H](C2)NCC4)OCO3`, the Aggregation is given as 91.6%.
In turn, `COc1ccc2c(c1OC)-c1c(OC)c(OC)cc3c1[C@H](C2)[N+](C)(C)CC3.[I-]` [ISOCORYDINE METHIODIDE] had an Aggregation of 85.6%.
In turn, `COc1c(O)ccc2c1-c1c(OC)c(O)cc3c1[C@H](C2)NCC3.Cl` came in with an Aggregation of 4%.
With `COc1ccc2c(c1OC)-c1c3c(cc4c1[C@H](C2)[N+](C)(C)CC4)OCO3.[I-]`, the Aggregation is given as 83.9%.
Regarding `COc1c(O)ccc2c1-c1c(OC)c(O)cc3c1[C@H](C2)[N+](C)(C)CC3.[I-]`, the Aggregation came to 85.5%.
In the case of `COc1cc2c(cc1O)C[C@H]1c3c(cc(OC)c(OC)c3-2)CC[N+]1(C)C.[I-]`, the Aggregation is 82.7%.
